Experimental data from PubChem BioAssay AID2060612 (Molecular Pharmacology Branch, DTP, NCI, 2025).
Values joined by “and” are separate entries in the source; they are usually repeats but may differ in a detail not shown here. Equal values may be shown once.

System: 565232-114-T-J1-PDC complex spheroid viability
Assay: Anticancer human tumor 565232-114-T-J1-PDC patient-derived bladder carcinoma cell line growth inhibition [CLK]
Conditions: for viability, T/C: stronger effect = lower value
Outline: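 Multi-cell-type spheroids combined patient-derived tumor cells with HUVEC endothelial cells and human mesenchymal stem cells. Paired agents were dosed in half-log steps down from about clinical Cmax, or from 10 microM where Cmax was unknown.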

[1] = curve of first compound, second compound 0.0316 µM
[2] = curve of first compound, second compound 0.1 µM
[3] = curve of first compound, second compound 0.316 µM
[4] = curve of first compound, second compound 1 µM
[5] = curve of first compound, second compound 3.16 µM
[6] = curve of first compound, second compound 10 µM
[7] = second compound 0.0316 µM, first compound 0.0316 µM
[8] = second compound 0.0316 µM, first compound 0.1 µM
[9] = second compound 0.0316 µM, first compound 0.316 µM
[10] = second compound 0.0316 µM, first compound 1 µM
[11] = second compound 0.1 µM, first compound 0.0316 µM
[12] = second compound 0.1 µM, first compound 0.1 µM
[13] = second compound 0.1 µM, first compound 0.316 µM
[14] = second compound 0.1 µM, first compound 1 µM
[15] = second compound 0.316 µM, first compound 0.0316 µM
[16] = second compound 0.316 µM, first compound 0.1 µM
[17] = second compound 0.316 µM, first compound 0.316 µM
[18] = second compound 0.316 µM, first compound 1 µM
[19] = second compound 1 µM, first compound 0.0316 µM
[20] = second compound 1 µM, first compound 0.1 µM
[21] = second compound 1 µM, first compound 0.316 µM
[22] = second compound 1 µM, first compound 1 µM
[23] = second compound 3.16 µM, first compound 0.0316 µM
[24] = second compound 3.16 µM, first compound 0.1 µM
[25] = second compound 3.16 µM, first compound 0.316 µM
[26] = second compound 3.16 µM, first compound 1 µM
[27] = second compound 10 µM, first compound 0.0316 µM
[28] = second compound 10 µM, first compound 0.1 µM
[29] = second compound 10 µM, first compound 0.316 µM
[30] = second compound 10 µM, first compound 1 µM
[31] = second compound 0.0316 µM, first compound 3.16 µM
[32] = second compound 0.0316 µM, first compound 10 µM
[33] = second compound 0.1 µM, first compound 3.16 µM
[34] = second compound 0.1 µM, first compound 10 µM
[35] = second compound 0.316 µM, first compound 3.16 µM
[36] = second compound 0.316 µM, first compound 10 µM
[37] = second compound 1 µM, first compound 3.16 µM
[38] = second compound 1 µM, first compound 10 µM
[39] = second compound 3.16 µM, first compound 3.16 µM
[40] = second compound 3.16 µM, first compound 10 µM
[41] = second compound 10 µM, first compound 3.16 µM
[42] = second compound 10 µM, first compound 10 µM
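Note: spheroids exposed to compounds for 7 days before readout.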
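Throughout, for viability, T/C: 100% = DMSO vehicle wells with luminescence normalized to vehicle control.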

Q: For `CCc1c2c(nc3ccc(O)cc13)-c1cc3c(c(=O)n1C2)COC(=O)[C@]3(O)CC` + CNC(=O)c1ccc(Nc2nc(OC3CCCC3)c3c(-c4ccc5nc(C)oc5c4)c[nH]c3n2)c(OC)c1, which IC50 [1] is on record?
A: 8.14 nM

Q: And the IC50 [2]?
A: < 3.16 nM

Q: And the IC50 [3]?
A: < 3.16 nM

Q: What about the IC50 [4] of the same compound?
A: < 3.16 nM

Q: What about the IC50 [5] of the same compound?
A: < 3.16 nM

Q: And the IC50 [6]?
A: < 3.16 nM

Q: And the viability, T/C (second compound 0.0316 µM, first compound 0.00316 µM)?
A: 103%

Q: And the viability, T/C (second compound 0.0316 µM, first compound 0.01 µM)?
A: 37.1%

Q: And the viability, T/C [7]?
A: 16.6%

Q: What about the viability, T/C [8] of the same compound?
A: 5.26%

Q: And the viability, T/C [9]?
A: 3.13%

Q: And the viability, T/C [10]?
A: 1.53%

Q: And the viability, T/C (second compound 0.1 µM, first compound 0.00316 µM)?
A: 33.4%

Q: And the viability, T/C (second compound 0.1 µM, first compound 0.01 µM)?
A: 17.9%

Q: And the viability, T/C [11]?
A: 12.2%

Q: And the viability, T/C [12]?
A: 3.99%

Q: And the viability, T/C [13]?
A: 2.1%

Q: And the viability, T/C [14]?
A: 1.61%

Q: And the viability, T/C (second compound 0.316 µM, first compound 0.00316 µM)?
A: 18.9%

Q: What about the viability, T/C (second compound 0.316 µM, first compound 0.01 µM) of the same compound?
A: 15.3%

Q: And the viability, T/C [15]?
A: 8.99%

Q: And the viability, T/C [16]?
A: 3.91%

Q: What about the viability, T/C [17] of the same compound?
A: 1.28%

Q: What about the viability, T/C [18] of the same compound?
A: 0.35%

Q: And the viability, T/C (second compound 1 µM, first compound 0.00316 µM)?
A: 14.7%

Q: What about the viability, T/C (second compound 1 µM, first compound 0.01 µM) of the same compound?
A: 13.8%

Q: And the viability, T/C [19]?
A: 4.81%

Q: And the viability, T/C [20]?
A: 4.56%

Q: And the viability, T/C [21]?
A: 1.55%

Q: And the viability, T/C [22]?
A: 0.71%

Q: What about the viability, T/C (second compound 3.16 µM, first compound 0.00316 µM) of the same compound?
A: 15.7%

Q: What about the viability, T/C (second compound 3.16 µM, first compound 0.01 µM) of the same compound?
A: 9.15%

Q: And the viability, T/C [23]?
A: 5.68%

Q: What about the viability, T/C [24] of the same compound?
A: 2.4%

Q: What about the viability, T/C [25] of the same compound?
A: 1%

Q: And the viability, T/C [26]?
A: 0.27%

Q: And the viability, T/C (second compound 10 µM, first compound 0.00316 µM)?
A: 17.3%

Q: And the viability, T/C (second compound 10 µM, first compound 0.01 µM)?
A: 12.9%

Q: What about the viability, T/C [27] of the same compound?
A: 6.78%

Q: And the viability, T/C [28]?
A: 3.12%

Q: And the viability, T/C [29]?
A: 1.32%

Q: What about the viability, T/C [30] of the same compound?
A: 2.51%

Q: With `O=c1[nH]cc(F)c(=O)[nH]1` + CNC(=O)c1ccc(Nc2nc(OC3CCCC3)c3c(-c4ccc5nc(C)oc5c4)c[nH]c3n2)c(OC)c1 as the compound, how does the IC50 [1] read?
A: > 10000 nM

Q: And the IC50 [2]?
A: < 31.6 nM

Q: And the IC50 [3]?
A: < 31.6 nM

Q: And the IC50 [4]?
A: < 31.6 nM

Q: And the IC50 [5]?
A: < 31.6 nM

Q: What about the IC50 [6] of the same compound?
A: < 31.6 nM

Q: What about the viability, T/C [7] of the same compound?
A: 84.3%

Q: And the viability, T/C [8]?
A: 96.8%

Q: And the viability, T/C [9]?
A: 97.1%

Q: And the viability, T/C [10]?
A: 108%

Q: What about the viability, T/C [31] of the same compound?
A: 87.3%

Q: And the viability, T/C [32]?
A: 72.4%

Q: What about the viability, T/C [11] of the same compound?
A: 44%

Q: And the viability, T/C [12]?
A: 50%

Q: What about the viability, T/C [13] of the same compound?
A: 44%

Q: What about the viability, T/C [14] of the same compound?
A: 48%

Q: What about the viability, T/C [33] of the same compound?
A: 41%

Q: And the viability, T/C [34]?
A: 46.1%

Q: What about the viability, T/C [15] of the same compound?
A: 29.7%

Q: What about the viability, T/C [16] of the same compound?
A: 31.4%

Q: What about the viability, T/C [17] of the same compound?
A: 31.2%

Q: And the viability, T/C [18]?
A: 36%

Q: And the viability, T/C [35]?
A: 35.3%

Q: And the viability, T/C [36]?
A: 40.1%

Q: What about the viability, T/C [19] of the same compound?
A: 20.1%

Q: And the viability, T/C [20]?
A: 21%

Q: What about the viability, T/C [21] of the same compound?
A: 19.4%

Q: What about the viability, T/C [22] of the same compound?
A: 23.1%

Q: And the viability, T/C [37]?
A: 23.8%

Q: And the viability, T/C [38]?
A: 28.5%

Q: What about the viability, T/C [23] of the same compound?
A: 16.9%

Q: What about the viability, T/C [24] of the same compound?
A: 16.4%

Q: And the viability, T/C [25]?
A: 17.8%

Q: And the viability, T/C [26]?
A: 19.6%

Q: What about the viability, T/C [39] of the same compound?
A: 18.6%

Q: And the viability, T/C [40]?
A: 21.3%

Q: And the viability, T/C [27]?
A: 21.3%

Q: What about the viability, T/C [28] of the same compound?
A: 16.1%

Q: And the viability, T/C [29]?
A: 18.2%

Q: And the viability, T/C [30]?
A: 19.9%

Q: And the viability, T/C [41]?
A: 18.1%

Q: What about the viability, T/C [42] of the same compound?
A: 18.9%

Q: For `C#Cc1c(F)ccc2cc(O)cc(-c3ncc4c(N5CC6CCC(C5)N6)nc(OCC56CCCN5CC(F)C6)nc4c3F)c12` (stereo not drawn) + CN1CCN(c2cc(C(=O)Nc3cc4cc(-c5cnn(C)c5)ccc4cn3)ccn2)CC1, which IC50 [1] is on record?
A: > 10000 nM

Q: What about the IC50 [2] of the same compound?
A: > 10000 nM

Q: And the IC50 [3]?
A: < 31.6 nM

Q: And the IC50 [4]?
A: < 31.6 nM

Q: And the IC50 [5]?
A: < 31.6 nM

Q: And the IC50 [6]?
A: < 31.6 nM

Q: And the viability, T/C [7]?
A: 104%

Q: And the viability, T/C [8]?
A: 75.3%

Q: What about the viability, T/C [9] of the same compound?
A: 106%

Q: What about the viability, T/C [10] of the same compound?
A: 113%

Q: What about the viability, T/C [31] of the same compound?
A: 93.2%

Q: And the viability, T/C [32]?
A: 101%

Q: What about the viability, T/C [11] of the same compound?
A: 96.8%

Q: And the viability, T/C [12]?
A: 76.8%

Q: And the viability, T/C [13]?
A: 102%

Q: And the viability, T/C [14]?
A: 86%

Q: And the viability, T/C [33]?
A: 101%

Q: And the viability, T/C [34]?
A: 107%

Q: And the viability, T/C [15]?
A: 25%

Q: And the viability, T/C [16]?
A: 29.1%

Q: What about the viability, T/C [17] of the same compound?
A: 26.9%

Q: And the viability, T/C [18]?
A: 28.1%

Q: And the viability, T/C [35]?
A: 21.8%

Q: What about the viability, T/C [36] of the same compound?
A: 21.1%

Q: What about the viability, T/C [19] of the same compound?
A: 0.26%

Q: And the viability, T/C [20]?
A: 0.25%

Q: And the viability, T/C [21]?
A: 0.72%

Q: What about the viability, T/C [22] of the same compound?
A: 0.3%

Q: And the viability, T/C [37]?
A: 1.23%

Q: And the viability, T/C [38]?
A: 0.75%

Q: And the viability, T/C [23]?
A: 0.23%

Q: And the viability, T/C [24]?
A: 3.14%

Q: What about the viability, T/C [25] of the same compound?
A: 0.23%

Q: And the viability, T/C [26]?
A: 0.18%

Q: What about the viability, T/C [39] of the same compound?
A: 2.07%

Q: And the viability, T/C [40]?
A: 0.17%

Q: What about the viability, T/C [27] of the same compound?
A: 0.21%

Q: And the viability, T/C [28]?
A: 1.2%

Q: And the viability, T/C [29]?
A: 2.26%

Q: And the viability, T/C [30]?
A: 0.7%

Q: What about the viability, T/C [41] of the same compound?
A: 3.78%

Q: What about the viability, T/C [42] of the same compound?
A: 0.83%

Q: How did the viability, T/C (compound 0.00316 µM) turn out when `CCN1CCN(Cc2ccc(Nc3ncc(F)c(-c4cc(F)c5nc(C)n(C(C)C)c5c4)n3)nc2)CC1` was run?
A: 90.3% and 109%

Q: What about the viability, T/C (compound 0.01 µM) of the same compound?
A: 84.6% and 93.8%

Q: And the viability, T/C (compound 0.0316 µM)?
A: 99.3% and 92.6%

Q: And the viability, T/C (compound 0.1 µM)?
A: 85.6% and 91.6%

Q: And the viability, T/C (compound 0.316 µM)?
A: 103% and 81.7%

Q: And the viability, T/C (compound 1 µM)?
A: 120% and 115%

Q: And the IC50 (curve of compound)?
A: > 1000 nM
